Measured values taken from PMC6017193, “Structure-Based Discovery of a Series of 5H-Pyrrolo[2,3-b]pyrazine FGFR Kinase Inhibitors” (Molecules : A Journal of Synthetic Chemistry and Natural …, 2018).

What was measured:
[1] = test system: KG1 leukemia cell line harboring FGFR1OP-FGFR1 fusion; assay: Cell proliferation assay in KG1 cells (SRB or MTT, 72 h); format: cell-based; settings: Homo sapiens, KG-1, mean ± SD from two separate experiments, read-out: KG1 IC50 (antiproliferation activity)
Experimental: Cell proliferation was examined in a FGFR1-translocated KG1 leukemia cell line harboring FGFR1OP-FGFR1 fusion. The original KG1 cell line was purchased from ATCC (CRL-8031), and cultured according the ATCC standard protocol. Cells were seeded in 96-well tissue culture plates. On the next day, the cells were exposed to various concentrations of compounds and further cultured for 72 h. Cell proliferation was then determined using sulforhodamine B (SRB, from Sigma-Aldrich, St Louis, MO, USA) or the thiazolyl blue tetrazolium bromide (MTT, from Sigma-Aldrich, St Louis, MO, USA) assay. The IC50 values were calculated by concentration- response curve fitting using the four-parameter method.

FGFR1 = biological target: T1, FGFR1 (Homo sapiens, UniProt P11362); assay: ELISA kinase assay, FGFR1 enzymatic activity; format: biochemical; settings: for inhibition at 0.01 µM: 0.01 μM (10 nM); for inhibition at 0.01 µM / inhibition at 0.1 µM / inhibition at 1 µM: mean of two separate experiments; for IC50: mean ± SD from two separate experiments
T1 construct: purchased Millipore
Experimental: The effects of compounds on the activities of indicated (FGFR1 and c-Met) kinases were determined using enzyme-linked immunosorbent assays (ELISAs) with purified recombinant proteins. Briefly, 20 μg/mL poly (Glu, Tyr)4:1 (Sigma, St. Louis, MO, USA) was precoated in 96-well plates as a substrate. A 50-μL aliquot of 10 μmol/L ATP solution diluted in kinase reaction buffer (50 mmol/L HEPES (pH 7.4), 50 mmol/L MgCl2, 0.5 mmol/L MnCl2, 0.2 mmol/L Na3VO4, and 1 mmol/L DTT) was added to each well; 1 μL of various concentrations of compounds diluted in 1% DMSO (v/v) (Sigma) were then added to each reaction well. DMSO (1%, v/v) was used as the negative control. The kinase reaction was initiated by the addition of purified tyrosine kinase proteins FGFR1 (Millipore, Darmstadt, Germany) or c-Met (Millipore) diluted in 49 μL of kinase reaction buffer. After incubation for 60 min at 37 °C, the plate was washed three times with phosphate-buffered saline (PBS) containing 0.1% Tween 20 (T-PBS). Anti-phosphotyrosine (PY99) antibody (Sanra Cruz, Dallas, TX, USA) (100 μL; 1:500, diluted in 5 mg/mL bovine serum albumin (BSA) T-PBS) was then added. After a 30-min incubation at 37 °C, the plate was washed three times, and 100 μL of horseradish peroxidase-conjugated goat anti-mouse IgG (Calbiochem, Shanghai, China) (1:2000, diluted in 5 mg/mL BSA T-PBS) was added. The plate was then incubated at 37 °C for 30 min, and washed three times. A 100-μL aliquot of a solution containing 0.03% H2O2 and 2 mg/mL o-phenylenediamine in 0.1 mol/L citrate buffer (pH 5.5) was added. The reaction was terminated by the addition of 50 μL of 2 mol/L H2SO4 as the color changed, and the plate was analyzed using a multi-well spectrophotometer (SpectraMAX 190, Molecular Devices, Palo Alto, CA, USA) at 490 nm. The inhibition rate (%) was calculated using the following equation:IR = [1 − (A490/A490control)] × 100%.(1) where IR, A490, and A490control are the inhibition rate, the absorbance value of the tested compound at 490 nm, and the absorbance value of the negative control compound at 490 nm, respectively. The IC50 values were calculated from the inhibition curves in two separate experiments.

T1 sequence (P11362 22-822): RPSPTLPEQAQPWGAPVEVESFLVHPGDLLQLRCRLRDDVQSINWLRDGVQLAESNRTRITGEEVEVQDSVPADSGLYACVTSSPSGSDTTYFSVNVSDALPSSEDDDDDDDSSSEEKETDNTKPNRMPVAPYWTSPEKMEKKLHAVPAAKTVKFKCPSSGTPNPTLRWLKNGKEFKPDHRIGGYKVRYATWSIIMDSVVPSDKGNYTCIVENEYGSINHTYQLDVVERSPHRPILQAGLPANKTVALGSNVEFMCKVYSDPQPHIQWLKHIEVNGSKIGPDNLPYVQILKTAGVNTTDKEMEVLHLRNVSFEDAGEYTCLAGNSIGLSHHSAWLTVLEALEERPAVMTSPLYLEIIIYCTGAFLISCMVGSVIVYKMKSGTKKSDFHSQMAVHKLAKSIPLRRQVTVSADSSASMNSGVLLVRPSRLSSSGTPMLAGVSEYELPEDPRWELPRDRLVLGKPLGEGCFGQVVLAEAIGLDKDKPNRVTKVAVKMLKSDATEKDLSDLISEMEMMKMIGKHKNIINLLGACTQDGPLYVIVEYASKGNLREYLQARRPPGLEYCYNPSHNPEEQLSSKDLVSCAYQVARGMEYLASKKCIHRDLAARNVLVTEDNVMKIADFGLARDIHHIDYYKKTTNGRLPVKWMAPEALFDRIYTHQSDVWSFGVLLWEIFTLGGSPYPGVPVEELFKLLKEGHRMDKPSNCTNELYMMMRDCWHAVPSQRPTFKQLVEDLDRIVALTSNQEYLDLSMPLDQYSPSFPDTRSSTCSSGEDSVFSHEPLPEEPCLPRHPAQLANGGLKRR

Row | IC50 [1] [µM] | inhibition at 0.01 µM (FGFR1) [%] | inhibition at 0.1 µM (FGFR1) [%] | inhibition at 1 µM (FGFR1) [%] | IC50 (FGFR1) [µM] | Structure (SMILES)
1 | 0.187 ± 0.0172 | 27.9 | 71.9 | 90.7 | 0.0157 ± 0.0048 | O=S(=O)(c1c[nH]cn1)n1ccc2ncc(-c3cn[nH]c3)nc21 [Compound 27, 5-((1H-Imidazol-4-yl)sulfonyl)-3-(1H-pyrazol-4-yl)-5H-pyrrolo[2,3-b]pyrazine]
2 | 0.0174 ± 0.0087 | 53.7 | 79.5 | 94.6 | 0.003 ± 0.0007 | CCn1cnc(S(=O)(=O)n2ccc3ncc(-c4cn[nH]c4)nc32)c1 [Compound 29, 5-((1-ethyl-1H-imidazol-4-yl)sulfonyl)-3-(1H-pyrazol-4-yl)-5H-pyrrolo[2,3-b]pyrazine]
3 | 0.0985 ± 0.0191 | 12.5 | 63.2 | 88.8 | 0.0154 ± 0.003 | Cn1cnc(S(=O)(=O)n2ccc3ncc(-c4cn[nH]c4)nc32)c1 [Compound 28, 5-((1-Methyl-1H-imidazol-4-yl)sulfonyl)-3-(1H-pyrazol-4-yl)-5H-pyrrolo[2,3-b]pyrazine]
